SMILES strings stand for the structures.

Assay [1] is described as follows: Ratio of C50(GC) to that of C50(AT).
Assay [2] concerns HeLa. Kind of assay: Compound was tested for antitumor activity against the human uterine cancer cell (HeLa) line at concentration of […] x 10 e-5 M. The class given is functional.
For assay [3], the system named is Nucleic Acid. Kind of assay: Compound was evaluated for DNA-binding affinity using poly[d(GC)]2. The class given is nucleic-acid assay.
Assay [4] deals with HeLa. Kind of assay: Compound was tested for antitumor activity against the human uterine cancer cell (HeLa) line at concentration of 1 x 10 e-7 M. The class given is functional.
Assay [5] concerns Nucleic Acid. The assay can be described thus: Compound was evaluated for DNA-binding affinity using poly[d(AT)]2. The class given is nucleic-acid assay.
Assay [6] has as its system HeLa. The assay can be described thus: Compound was tested for antitumor activity against the human uterine cancer cell (HeLa) line at concentration of […] x 10 e-4 M. The class given is functional.
In assay [7] the test system is Nucleic Acid. The assay can be described thus: Compound was evaluated for DNA-binding affinity using calf-thymus DNA. The class given is nucleic-acid assay. The note with it: Bos taurus.
Assay [8] deals with HeLa. The assay can be described thus: Compound was tested for antitumor activity against the human uterine cancer cell (HeLa) line at concentration of 1 x 10 e-6 M. The class given is functional.

As to `Cl.Cl.Cl.NCCNCc1ccc2ccc(-c3ccccc3)nc2c1`, the Ratio in assay [1] turned out to be 1.5. Besides, the Cell survival in assay [2] is 31%; in assay [4] it was 98%; in assay [6], 3%; in assay [8], 70%. The figures for the C50 in assay [3], in assay [5] and in assay [7] were 16 µM, 11 µM and 11 µM, respectively.

Consider `Cl.Cl.Cl.NCCNCc1ccc(-c2ccc3ccccc3n2)cc1`, for which, in assay [1], the Ratio is 1.6. Besides, the Cell survival in assay [2] is given as 65%; in assay [4], 79%; in assay [6], 3%; in assay [8], 87%. Moreover, the results for the C50 in assay [3], in assay [5] and in assay [7] were 11 µM, 7 µM and 7 µM, respectively.

With `Cl.Cl.NCCNCc1ccc2nc(-c3ccccc3)ccc2c1`, the Cell survival was 44% in assay [2], 85% in assay [4], 0% in assay [6] and 82% in assay [8].

With `Cl.Cl.Cl.NCCNCc1c2ccccc2nc2ccccc12`, the Cell survival in assay [2] was 71%; in assay [4], 100%; in assay [6], 3%; in assay [8], 94%.

On to `Cl.Cl.Cl.NCCNCc1cc(-c2ccccc2)nc2ccccc12`, for which the Ratio in assay [1] came to 1.5. Besides, the Cell survival in assay [2] was 52%; in assay [4] it was 74%; in assay [6], 8%; in assay [8], 62%. In addition, the results for the C50 in assay [3], in assay [5] and in assay [7] were 48 µM, 33 µM and 30 µM, respectively.

Regarding `Cl.Cl.Cl.NCCNCc1cccc2ccc(-c3ccccc3)nc12`, the Ratio in assay [1] turned out to be 1.1. In addition, the Cell survival in assay [2] is given as 7%; in assay [4], 77%; in assay [6], 0%; in assay [8] it was 65%. In addition, the C50 in assay [3] was 5.6 µM; in assay [5], 5.2 µM; in assay [7] it was 2.1 µM.
